Experiment [1] concerns APP/PS1 mice. Briefly: fEPSP slope and LTP in hippocampal CA1 (Schaffer collateral) after dosing, ex vivo synaptic plasticity. Particulars: APP/PS1 mice 15 months old, form C 1 mg/kg orally once daily about 11 to 13 days, aducanumab 5 mg/kg i.v., four weekly injections. Here is the method:
(§1) Using APP/PS1 mice (15 months old, Taconic Biosciences), an animal model of Alzheimer's disease, the efficacy of crystalline form C and aducanumab (Creative Biolabs) was evaluated when administered alone or in combination, respectively. A control group and four experimental groups were prepared as follows (see Table 14).
(§2) For the control antibody, an isotype antibody was administered intravenously, and for the vehicle, 200 µL of a mixed solution of DMSO (10):PEG400 (44):saline (55) was administered orally. Five mice were used for each treatment group.
(§3) Aducanumab was administered at a dose of 5 mg/kg, and the control antibody, which is an inactivated form of aducanumab, was administered at a dose of 5 mg/kg. For the intravenous administration, a total of four injections were administered into the tail vein on the starting day of the experiment and at one-week intervals thereafter.
(§4) For oral administration, 1 mg/kg of the compound of the present disclosure (crystalline form C, BnH-015B) or a vehicle was administered orally once daily for about 11 to 13 days, starting about 2 weeks after the initiation of the experiment.

Experiment [2] relates to APP/PS1 mice. In words: TC synaptic potency and GABA/AMPA ratio in the sensory cerebral cortex after dosing. It counts as in vivo. Particulars: form C 1 mg/kg orally, aducanumab 5 mg/kg i.v. On the procedure:
as §1, §2, §3, §4
Meanwhile, the efficacy of the compound against Alzheimer's disease was evaluated by measuring the potency and the GABA/AMPA ratio in the sensory cerebral cortex. […]

`C[C@@H]1CC[C@H](C(=O)O)CN1C(=O)Cc1ccc(F)cc1Cl` [Crystalline form C, (3S,6R)-1-(2-(2-chloro-4-fluorophenyl)acetyl)-6-methylpiperidine-3-carboxylic acid]: the “long-term potentiation (LTP) of the fEPSP, excitatory SC pathway” value in the experiment with APP/PS1 mice [1] (hippocampus CA1) is “significantly increased”. For the same compound, the “slope of the field excitatory postsynaptic potential (fEPSP), synaptic efficacy” value with APP/PS1 mice [1] (hippocampus CA1, 4 weeks) was “significantly increased”. Moreover, in the experiment with APP/PS1 mice [2], the “balance of excitation/inhibition (GABA/AMPA ratio)” value is “maintaining the balance of excitation/inhibition” and the “excitatory TC synaptic potency (TC potency)” value was “increased excitatory TC synaptic potency”.

Values taken from patent EP4772497A1, “POLYMORPHS OF NITROGEN-CONTAINING HETEROCYCLIC COMPOUNDS, AND USES THEREOF” (BNH Research Co., Ltd., priority 2023, dated 2025).
